In ChEMBL document CHEMBL4373683, “Dual-target inhibitors of mycobacterial aminoacyl-tRNA synthetases among N-benzylidene-N'-thiazol-2-yl-hydrazines” (Medchemcomm, 2019):
Values after ≈ are worked out from the molar mass of the structure shown.

Assays:
[1] = biological target: T1, Leucine--tRNA ligase (Mycobacterium tuberculosis (strain ATCC 25618 / H37Rv)) (UniProt P9WFV1); assay: (§1) Inhibition of Mycobacterium tuberculosis LeuRS expressed in Escherichia coli Rosetta (DE3) cells at 100 uM incubated for 30 mins followed by incubation with ATP, leucine, tRNA, iPPase for 10 mins and measured after 30 mins by BIOMOL Green reagent based plate reader analysis relative to control
T1 sequence (whole entry): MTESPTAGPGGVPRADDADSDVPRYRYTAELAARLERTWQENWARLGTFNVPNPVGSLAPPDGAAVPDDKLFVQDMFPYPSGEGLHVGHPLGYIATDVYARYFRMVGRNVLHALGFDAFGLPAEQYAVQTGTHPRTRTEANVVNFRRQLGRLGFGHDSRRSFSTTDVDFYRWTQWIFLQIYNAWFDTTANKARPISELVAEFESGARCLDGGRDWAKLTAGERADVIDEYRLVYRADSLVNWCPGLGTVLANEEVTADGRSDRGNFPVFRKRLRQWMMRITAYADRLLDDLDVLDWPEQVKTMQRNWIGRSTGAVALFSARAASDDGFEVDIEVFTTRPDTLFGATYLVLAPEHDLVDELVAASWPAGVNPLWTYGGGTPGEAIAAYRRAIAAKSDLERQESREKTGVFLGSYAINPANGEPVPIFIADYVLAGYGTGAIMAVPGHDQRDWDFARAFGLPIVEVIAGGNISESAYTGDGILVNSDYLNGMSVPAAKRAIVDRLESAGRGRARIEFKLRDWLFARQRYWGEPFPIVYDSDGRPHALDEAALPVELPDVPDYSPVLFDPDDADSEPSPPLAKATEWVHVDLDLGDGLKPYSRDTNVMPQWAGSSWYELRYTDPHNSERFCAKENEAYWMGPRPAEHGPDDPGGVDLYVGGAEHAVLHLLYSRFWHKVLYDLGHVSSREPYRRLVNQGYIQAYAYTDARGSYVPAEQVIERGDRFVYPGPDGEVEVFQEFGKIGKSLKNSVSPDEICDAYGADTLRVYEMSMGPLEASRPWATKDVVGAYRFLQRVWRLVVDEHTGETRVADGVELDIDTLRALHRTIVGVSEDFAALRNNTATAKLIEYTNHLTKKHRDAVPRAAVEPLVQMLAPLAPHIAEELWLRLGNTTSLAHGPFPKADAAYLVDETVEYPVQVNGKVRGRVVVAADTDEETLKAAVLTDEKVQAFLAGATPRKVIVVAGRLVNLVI

[2] = test system: Mycobacterium tuberculosis H37Rv; assay: as §1, with “of recombinant” for “of”, “H37Rv C-terminal His6-tagged MetRS” for “LeuRS”, “BL21” for “Rosetta”, “(DE3) Star” for “(DE3)”, “methionine,” for “leucine,”
Saccharomyces cerevisiae = assay: Inhibition of yeast inorganic pyrophosphatase assessed as inhibition of BIOMOL-Green signal using inorganic pyrophosphate as substrate at 50 uM incubated for 10 mins in MtbMetRS reaction buffer and measured after 30 mins by BIOMOL-Green reagent based plate reader analysis
[3] = Inhibition of BIOMOL-Green signal at 50 uM in MtbMetRS reaction buffer in presence of 10 uM phosphate standard measured after 30 mins by plate reader analysis
Leucine--tRNA ligase = biological target: T2, Leucine--tRNA ligase (Mycobacterium tuberculosis (strain ATCC 25618 / H37Rv), UniProt P9WFV1); assay: (§2) Inhibition of Mycobacterium tuberculosis LeuRS expressed in Escherichia coli Rosetta (DE3) cells incubated for 30 mins followed by incubation with ATP, leucine, tRNA, iPPase for 10 mins and measured after 30 mins by BIOMOL Green reagent based plate reader analysis
T2 sequence (P9WFV1 whole entry): T1 sequence (whole entry)

[4] = as §2, with “of recombinant” for “of”, “H37Rv C-terminal His6-tagged MetRS” for “LeuRS”, “BL21” for “Rosetta”, “(DE3) Star” for “(DE3)”, “methionine,” for “leucine,”
[5] = test system: Mycobacterium tuberculosis; type: functional; settings: H37Rv ATCC 27294, 168 h
[6] = test system: Mycobacterium tuberculosis; type: functional; settings: H37Rv ATCC 27294, 336 h
[7] = test system: Mycobacterium tuberculosis; type: functional; settings: H37Rv ATCC 27294, 168 h; remark: listed apart in the source
[8] = test system: Mycobacterium tuberculosis; type: functional; settings: H37Rv ATCC 27294, 336 h; remark: listed apart in the source
[9] = test system: Mycobacterium tuberculosis; type: functional; settings: H37Rv ATCC 27294, 168 h; remark: listed apart in the source
[10] = test system: Mycobacterium tuberculosis; type: functional; settings: H37Rv ATCC 27294, 336 h; remark: listed apart in the source
[11] = test system: Mycobacterium tuberculosis; type: functional; settings: H37Rv ATCC 27294, 168 h; remark: listed apart in the source
[12] = test system: Mycobacterium tuberculosis; type: functional; settings: H37Rv ATCC 27294, 336 h; remark: listed apart in the source
[13] = Cytotoxicity against human HEK293 cells assessed as reduction in cell viability incubated for 72 hrs by MTT assay; type: cell-based
[14] = Cytotoxicity against human HepG2 cells assessed as reduction in cell viability incubated for 72 hrs by MTT assay; type: cell-based

SMILES: COC(=O)c1sc(N/N=C/c2ccc(Br)cc2)nc1C
- inhibition [1]: 46%
- inhibition [2]: 88%
- inhibition (Saccharomyces cerevisiae): < 35%
- inhibition [3]: < 35%

SMILES: O=[N+]([O-])c1cc(/C=N/Nc2nc(-c3ccccc3)cs2)ccc1O
- inhibition [1]: 53%
- inhibition [2]: 72%
- inhibition (Saccharomyces cerevisiae): < 35%
- inhibition [3]: < 35%

SMILES: COc1cc(/C=N/Nc2nc(-c3ccc(Br)cc3)cs2)cc([N+](=O)[O-])c1O
- inhibition [1]: 113%
- inhibition [2]: 110%
- inhibition (Saccharomyces cerevisiae): < 35%
- inhibition [3]: < 35%

SMILES: CCc1ccc(/C=N/Nc2nc(-c3cccc([N+](=O)[O-])c3)cs2)cc1
- inhibition [1]: 3%
- inhibition [2]: 27%

SMILES: CCOC(=O)c1sc(N/N=C/c2cc(Br)c(O)c(Br)c2)nc1C
- inhibition [1]: 55%
- inhibition [2]: 51%

SMILES: CCCCCCOc1ccc(/C=N/Nc2nccs2)cc1OC
- inhibition [1]: 47%
- inhibition [2]: 62%

SMILES: CCOC(=O)c1sc(N/N=C/c2ccccc2C(F)(F)F)nc1C
- inhibition [1]: 34%
- inhibition [2]: 45%

SMILES: COc1cc(/C=N/Nc2nc(C)c(C(C)=O)s2)ccc1OCc1ccccc1Cl
- inhibition [1]: 87%
- inhibition [2]: 113%
- inhibition (Saccharomyces cerevisiae): < 35%
- inhibition [3]: < 35%

SMILES: COc1ccc(OC)c(/C=N/Nc2nc(-c3cccnc3)cs2)c1
- inhibition [1]: 74%
- inhibition [2]: 115%

SMILES: Oc1ccccc1/C=N/Nc1nc(-c2ccccc2)cs1
- inhibition [1]: 7%
- inhibition [2]: 51%

SMILES: COc1cc(/C=N/Nc2nccs2)cc(Br)c1OCc1ccccc1
- inhibition [1]: 55%
- inhibition [2]: 106%
- inhibition (Saccharomyces cerevisiae): < 35%
- inhibition [3]: < 35%

SMILES: Cc1csc(N/N=C/c2ccc(C(=O)O)cc2)n1
- inhibition [1]: -4%

SMILES: O=C(O)c1ccc(/C=N/Nc2nc(-c3ccc(Cl)cc3Cl)cs2)cc1
- inhibition [1]: 101%
- inhibition [2]: 92%
- IC50 (Leucine--tRNA ligase): 27.3 µM
- IC50 ([4]; read-out: IC50): 22.7 µM
- MIC [5]: > 50 µM
- MIC [6]: > 50 µM
- MIC [7]: > 50 µM
- MIC [8]: > 50 µM
- MIC [9]: > 50 µM
- MIC [10]: > 50 µM
- MIC [11]: > 50 µM
- MIC [12]: > 50 µM

SMILES: COC(=O)c1sc(N/N=C/c2ccc(C(=O)O)cc2)nc1C
- inhibition [1]: 12%

SMILES: O=[N+]([O-])c1cccc(-c2csc(N/N=C/c3ccccc3Br)n2)c1
- inhibition [1]: 80%
- inhibition [2]: 93%
- IC50 (Leucine--tRNA ligase): 8.9 µM
- IC50 ([4]; read-out: IC50): 6.5 µM
- MIC [5]: > 50 µM
- MIC [6]: > 50 µM
- MIC [7]: ≥ 50 µM
- MIC [8]: > 50 µM
- MIC [9]: 37 µM (≈ 14.9 µg/mL)
- MIC [10]: > 50 µM
- MIC [11]: 37 µM (≈ 14.9 µg/mL)
- MIC [12]: 50 µM (≈ 20.2 µg/mL)

SMILES: CN(C)c1ccc(/C=N/Nc2nc(-c3ccccc3)cs2)cc1
- inhibition [1]: 65%
- inhibition [2]: 123%
- inhibition (Saccharomyces cerevisiae): < 35%
- inhibition [3]: < 35%

SMILES: Cc1sc(N/N=C/c2cccc(O)c2)nc1-c1ccccc1
- inhibition [1]: 65%
- inhibition [2]: 112%
- inhibition (Saccharomyces cerevisiae): < 35%
- inhibition [3]: < 35%

SMILES: COc1cc(/C=N/Nc2nccs2)ccc1OC(=O)c1ccc(Cl)cc1Cl
- inhibition [1]: 73%
- inhibition [2]: 142%
- inhibition (Saccharomyces cerevisiae): < 35%
- inhibition [3]: < 35%

SMILES: CCOC(=O)c1sc(N/N=C/c2ccc(Br)cc2)nc1C
- inhibition [1]: 39%
- inhibition [2]: 111%
- inhibition (Saccharomyces cerevisiae): < 35%
- inhibition [3]: < 35%

SMILES: COc1ccc(/C=N/Nc2nc(C)c(C)s2)cc1
- inhibition [1]: 1%
- inhibition [2]: 1%

SMILES: CCOC(=O)c1sc(N/N=C/c2ccccc2)nc1C
- inhibition [1]: 19%
- inhibition [2]: 73%

SMILES: COC(=O)c1sc(N/N=C/c2ccc([N+](=O)[O-])cc2)nc1C
- inhibition [1]: 88%
- inhibition [2]: 75%

SMILES: Cc1csc(N/N=C/c2ccccc2Br)n1
- IC50 (Leucine--tRNA ligase): 38.4 µM
- IC50 ([4]; read-out: IC50): 123 µM

SMILES: CCOC(=O)c1sc(N/N=C/c2cccc(O)c2)nc1C
- inhibition [1]: 1%
- inhibition [2]: 71%

SMILES: Brc1ccccc1/C=N/Nc1nc(-c2ccccc2)cs1
- IC50 (Leucine--tRNA ligase): 24.1 µM
- IC50 ([4]; read-out: IC50): 37.5 µM

SMILES: CCOC(=O)Cc1csc(N/N=C/c2ccc(C(=O)O)cc2)n1
- inhibition [1]: 12%
- inhibition [2]: 22%

SMILES: Cc1csc(N/N=C/c2ccc([N+](=O)[O-])cc2)n1
- inhibition [1]: 20%
- inhibition [2]: 92%

SMILES: CCOC(=O)c1sc(N/N=C/c2ccc(C(=O)O)cc2)nc1C
- inhibition [1]: -7%
- inhibition [2]: 6%

SMILES: COc1ccc(/C=N/Nc2nc(C)cs2)cc1Br
- IC50 (Leucine--tRNA ligase): 95 µM
- IC50 [4]: Not Active

SMILES: COc1cc(/C=N/Nc2nccs2)ccc1OCc1ccccc1Cl
- inhibition [1]: 64%
- inhibition [2]: 102%
- inhibition (Saccharomyces cerevisiae): < 35%
- inhibition [3]: < 35%

SMILES: Cc1csc(N/N=C/c2cc(Br)ccc2O)n1
- inhibition [1]: 39%
- inhibition [2]: 113%

SMILES: O=[N+]([O-])c1cccc(-c2csc(N/N=C/c3cccc(Oc4ccccc4)c3)n2)c1
- inhibition [1]: 11%
- inhibition [2]: 65%

SMILES: COc1cccc(/C=N/Nc2nc(C)cs2)c1OC
- inhibition [1]: 17%
- inhibition [2]: 25%

SMILES: CCOC(=O)c1sc(N/N=C/c2cc(Br)c(O)c(OC)c2)nc1C
- inhibition [1]: 54%
- inhibition [2]: 94%

SMILES: NNC(=O)c1ccncc1 [ISONIAZID]
- MIC [5]: 0.1 µM (≈ 0.0137 µg/mL)
- MIC [6]: 0.3 µM (≈ 0.0411 µg/mL)
- MIC [7]: 0.6 µM (≈ 0.0823 µg/mL)
- MIC [8]: 0.6 µM (≈ 0.0823 µg/mL)
- MIC [9]: 0.07 µM (≈ 0.0096 µg/mL)
- MIC [10]: 0.1 µM (≈ 0.0137 µg/mL)
- MIC [11]: 0.39 µM (≈ 0.0535 µg/mL)
- MIC [12]: 0.39 µM (≈ 0.0535 µg/mL)

SMILES: COc1ccc(/C=N/Nc2nccs2)cc1Br
- inhibition [1]: 29%
- inhibition [2]: 90%

SMILES: CCOC(=O)c1sc(N/N=C/c2ccccc2Br)nc1C
- inhibition [1]: 67%
- inhibition [2]: 99%

SMILES: CCOc1ccc(/C=N/Nc2nc(C)c(C(C)=O)s2)cc1
- inhibition [1]: 20%
- inhibition [2]: 53%

SMILES: O=[N+]([O-])c1ccccc1/C=N/Nc1nccs1
- inhibition [1]: 45%
- inhibition [2]: 51%

SMILES: COc1cc(/C=N/Nc2nc(-c3ccc([N+](=O)[O-])cc3)cs2)cc([N+](=O)[O-])c1O
- inhibition [1]: 103%
- inhibition [2]: 94%
- IC50 (Leucine--tRNA ligase): 5.8 µM
- IC50 ([4]; read-out: IC50): 4.2 µM
- MIC [5]: 50 µM (≈ 20.8 µg/mL)
- MIC [6]: ≥ 50 µM
- MIC [7]: 50 µM (≈ 20.8 µg/mL)
- MIC [8]: > 50 µM
- MIC [9]: > 50 µM
- MIC [10]: > 50 µM
- MIC [11]: ≥ 50 µM
- MIC [12]: > 50 µM

SMILES: COc1ccc(/C=N/Nc2nc(-c3ccc(F)cc3)cs2)cc1Br
- inhibition [1]: 109%
- inhibition [2]: 121%
- IC50 (Leucine--tRNA ligase): 12.5 µM
- IC50 ([4]; read-out: IC50): 10.7 µM
- MIC [5]: 1.56 µM (≈ 0.634 µg/mL)
- MIC [6]: 2.3 µM (≈ 0.934 µg/mL)
- MIC [7]: 19 µM (≈ 7.72 µg/mL)
- MIC [8]: 37 µM (≈ 15 µg/mL)
- MIC [9]: 0.78 µM (≈ 0.317 µg/mL)
- MIC [10]: 2.3 µM (≈ 0.934 µg/mL)
- MIC [11]: 9.4 µM (≈ 3.82 µg/mL)
- MIC [12]: 25 µM (≈ 10.2 µg/mL)
- CC50 at 72 h [13]: > 100 µM
- CC50 at 72 h [14]: > 100 µM
